Values of other authors as cited in patent publication US11618772B2 (Kineta Chronic Pain, LLC, priority 2014, dated 2023).

Target: T1, α9α10 nAChR (Rattus norvegicus, UniProt P43144+Q9JLB5)
T1 construct: host or cells: oocytes
Settings: cited from earlier work

T1 sequence (P43144 26-479 limits assumed): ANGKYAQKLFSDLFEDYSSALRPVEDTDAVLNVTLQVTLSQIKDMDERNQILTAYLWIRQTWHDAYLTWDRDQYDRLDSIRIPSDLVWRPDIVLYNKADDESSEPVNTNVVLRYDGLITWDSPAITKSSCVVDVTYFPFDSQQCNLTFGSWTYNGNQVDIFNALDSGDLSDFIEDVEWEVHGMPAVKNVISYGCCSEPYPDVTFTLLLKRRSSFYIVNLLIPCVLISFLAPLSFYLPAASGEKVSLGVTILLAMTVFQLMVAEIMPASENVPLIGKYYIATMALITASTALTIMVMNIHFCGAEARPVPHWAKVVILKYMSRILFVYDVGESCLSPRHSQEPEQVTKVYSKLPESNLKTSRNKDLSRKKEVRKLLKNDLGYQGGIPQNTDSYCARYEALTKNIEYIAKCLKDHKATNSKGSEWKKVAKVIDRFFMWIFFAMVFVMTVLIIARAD
T1 sequence (Q9JLB5 25-447 limits assumed): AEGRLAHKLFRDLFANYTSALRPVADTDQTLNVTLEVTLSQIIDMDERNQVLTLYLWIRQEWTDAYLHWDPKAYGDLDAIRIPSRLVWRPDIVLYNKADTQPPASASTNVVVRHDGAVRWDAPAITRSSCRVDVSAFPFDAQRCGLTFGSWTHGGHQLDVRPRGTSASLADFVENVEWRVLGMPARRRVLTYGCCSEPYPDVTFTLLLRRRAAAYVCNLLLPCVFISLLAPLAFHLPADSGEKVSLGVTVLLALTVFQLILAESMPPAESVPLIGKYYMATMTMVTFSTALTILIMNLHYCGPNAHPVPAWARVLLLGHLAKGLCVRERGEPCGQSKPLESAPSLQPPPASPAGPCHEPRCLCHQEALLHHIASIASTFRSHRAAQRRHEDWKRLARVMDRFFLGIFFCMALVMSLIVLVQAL

GCCSDPRCRYRCR [RgIA]
block of α9α10 nAChR: block α9α10 nAChR
